Assay results from patent US20250099431A1, “GLP-1R MODULATING COMPOUNDS” (priority 2020, published 2025).

What was measured:
[1] = biological target: GLP-1R (Homo sapiens (Human), UniProt P43220); assay: GLP-1R activation: cAMP increase in CHO cells stably expressing GLP-1R; format: cell-based; details: cAMP increase, 10 point dose response, 30 minutes incubation at 37° C., read-out: EC50
Experimental: GLP-1R activation by a compound of the present disclosure was quantified by measuring cAMP increase in CHO cells stably expressing GLP-1R (MultiSpan product #C1267-1a). […] The cells were then incubated overnight at 37° C., 5% CO2. […] 1% BSA (Rockland Immunochemicals product #BSA-1000)). Following the medium change, the cells were incubated for 1 hour at 37° C., 5% CO2. The tested GLP-1 compound was added to the cells in a 10 point dose response followed by a 30 minutes incubation at 37° C., 5% CO2. cAMP concentration increase was then detected using Cisbio's cAMP Gs Dynamic Kit (product #62AM4PEC) according to the manufacturer's protocol. The response was plotted against the log of the agonist concentration and fitted to a sigmoidal equation to determine the EC50.

[2] = Microsomal stability (liver microsomal assay, mixed cofactors); predicted hepatic clearance; format: in vitro ADME; details: liver microsomes 1.0 mg protein/mL (+UDPGA +NADPH), 1 μM analyte, 37° C.; scaled with human liver weight and hepatic blood flow 1.3 L/hr/kg
Experimental: Metabolic stability of compounds was assessed using human or rat liver microsomal assays (Corning). In these assays, 10 nL of each analyte at a concentration of 1 mM in 100% DMSO was dispensed into a well of a polypropylene plates using the Echo 550 acoustic liquid dispenser (Labcyte®). Each plate contained 384 wells with a single analyte in each well.
A solution of human (Corning® Gentest™ Human Mixed Pooled Microsomes or rat (Corning® Gentest™ Rat [Sprague-Dawley] Pooled Liver Microsomes) liver microsomes at 2 mg/ml in 100 mM K2HPO4/KH2PO4 at pH 7. 4 was combined with alamethicin from Trichoderma viride (Sigma-Aldrich) 0.0225 mg/ml. The mixture was incubated on ice for 15 minutes. 5 μL of this mixture was added to individual wells following a 15 minute incubation at room temperature and supplemented with 5 μL NADPH Regenerating Solution of cofactors (Corning® Gentest™ UGT Reaction Mix) containing 100 mM K2HPO4/KH2PO4 at pH 7.4, 2.6 mM NADP+, 6.6 mM glucose-6-phosphate, 6.6 mM MgCl2, 0.8 U/mL glucose-6-phosphate dehydrogenase, 0.1 mM sodium citrate, and 6.8 mM uridine diphosphate-glucuronic acid. The final concentration of each analyte compound at the beginning of the reaction was 1 μM. The reactions were incubated at 37° C. and samples were collected at time points of 0, 5, 15, 30, 40, 50, 60, and 70 minutes for further analysis. Background data were collected using reactions without analyte compounds.
Upon collection of the sample time points, samples were quenched with 30 μL of a solution of 72% acetonitrile, 8% methanol, 0.1% formic acid, 19.9% water, and internal standard (IS). Reaction plates were spun in a centrifuge at speed of 4,000 rcf for 30 minutes at 4° C., following a dilution of the 10 μL quenched reaction into 40 μL de-ionized water, yielding assay plates.
Assay plates were analyzed using solid-state extraction coupled with quadrupole time-of-flight mass spectrometer, using Agilent QToF 6530 RapidFire 360 system, with C4 type A solid state cartridges. Analysis was performed in either positive or negative ionization modes. Mobile phases contained 0.1% formic acid in water for loading analytes onto solid state extraction cartridges and 0.1% formic acid in acetonitrile for elution into a mass spectrometer in positive ionization mode, or 0.1% acetic acid in water for loading and 0.1% acetic acid in acetonitrile for extraction in negative ionization mode. Peak-area ratios of integrated counts for individual compounds to IS were plotted as semi-logarithmic chart of log vs time. The initial linear portion of decay was fitted to a linear regression equation to derive the half-time of analyte decay.
Pharmacological parameters for an analyte compound metabolism were calculated using the following equations: […]
wherein concentration refers to the protein concentration (mg/ml) in the reaction.
This scales the in vitro intrinsic clearance up to the value that would be predicted for the entire mass of liver tissue (but with no restriction by blood flow). The value depends upon the size of the liver (species-dependent) and the yield of microsomal protein as appropriate (assumed to be species-independent).
Hepatic clearance will depend upon the inter-relationship of intrinsic clearance and hepatic blood flow and was predicted from in vitro data using a variety of approaches.
The hepatic extraction is reported as the predicted clearance expressed as a proportion of hepatic blood flow.

Sequence of GLP-1R (P43220 24-463): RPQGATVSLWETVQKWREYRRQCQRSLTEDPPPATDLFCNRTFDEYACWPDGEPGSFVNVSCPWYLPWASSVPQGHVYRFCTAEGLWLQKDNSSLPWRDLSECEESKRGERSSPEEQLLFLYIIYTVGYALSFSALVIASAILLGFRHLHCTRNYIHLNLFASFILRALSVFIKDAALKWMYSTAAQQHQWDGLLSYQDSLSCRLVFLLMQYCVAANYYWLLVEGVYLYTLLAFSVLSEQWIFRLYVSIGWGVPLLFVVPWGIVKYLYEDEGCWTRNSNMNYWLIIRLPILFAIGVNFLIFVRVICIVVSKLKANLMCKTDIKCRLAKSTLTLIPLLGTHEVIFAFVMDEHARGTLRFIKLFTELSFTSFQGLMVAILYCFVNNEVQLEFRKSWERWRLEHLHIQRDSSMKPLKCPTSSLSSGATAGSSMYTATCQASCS

EC50 [1] [nM]	Predicted Hepatic Clearance (Pred. Cl.) [2] [mL/min/kg]	Compound
9.1	2.5	CC1(c2ccc(Cl)cc2F)Oc2cccc(-c3ccc(Cc4nc5ccc(C(=O)O)cc5n4CC4(n5ccnn5)CC4)c(F)c3)c2O1 (stereo not drawn) [Example 109, 1-((1-(1H-1,2,3-triazol-1-yl)cyclopropyl)methyl)-2-(4-(2-(4-chloro-2-fluorophenyl)-2-methylbenzo[d][1, 3]dioxol-4-yl)-2-fluorobenzyl)-1H-benzo[d]imidazole-6-carboxylic acid]
1.7	7.67	CC1(c2ccc(Cl)cn2)Oc2cccc(-c3cc(F)c(Cc4nc5ccc(C(=O)O)cc5n4C[C@@H]4CCO4)c(C#N)c3)c2O1 (stereo partly drawn) [Example 74, 2-(4-(2-(5-chloropyridin-2-yl)-2-methylbenzo[d][1, 3]dioxol-4-yl)-2-cyano-6-fluorobenzyl)-1-(((S)-oxetan-2-yl)methyl)-1H-benzo[d]imidazole-6-carboxylic acid]
0.19	5	CC1(c2ccc(Cl)cn2)Oc2cccc(-c3cc(F)c(Cc4nc5ccc(C(=O)O)cc5n4C[C@@H]4CCO4)cc3F)c2O1 (single isomer, unassigned) [Example 45]
219	4.83	COCCn1c(Cc2ccc(-c3cccc4c3OC(c3ccc(C#N)cc3)O4)cc2F)nc2ccc(C(=O)O)cc21 (stereo not drawn) [Example 6, 2-(4-(2-(4-cyanophenyl)benzo[d][1, 3]dioxol-4-yl)-2-fluorobenzyl)-1-(2-methoxyethyl)-1H-benzo[d]imidazole-6-carboxylic acid]
10	3.3	COCCn1c(Cc2c(F)cc(-c3cccc4c3OC(C)(c3ccc(Cl)cn3)O4)cc2F)nc2ccc(C(=O)O)cc21 (stereo not drawn) [Example 65, 2-(4-(2-(5-chloropyridin-2-yl)-2-methylbenzo[d][1, 3]dioxol-4-yl)-2,6-difluorobenzyl)-1-(2-methoxyethyl)-1H-benzo[d]imidazole-6-carboxylic acid]
2.5	8.83	COCCn1c(Cc2cc(F)c(-c3cccc4c3OC(C)(c3ccc(C#N)cc3F)O4)cc2F)nc2c(F)cc(C(=O)O)cc21 (stereo not drawn) [Example 62, 2-(4-(2-(4-cyano-2-fluorophenyl)-2-methylbenzo[d][1, 3]dioxol-4-yl)-2,5-difluorobenzyl)-4-fluoro-1-(2-methoxyethyl)-1H-benzo[d]imidazole-6-carboxylic acid]
78	7.83	COCCn1c(Cc2ccc(-c3cccc4c3OC(C)(c3ccc(Cl)cc3F)O4)s2)nc2ccc(C(=O)O)cc21 (stereo not drawn) [Example 8, 2-((5-(2-(4-chloro-2-fluorophenyl)-2-methylbenzo[d][1, 3]dioxol-4-yl)thiophen-2-yl)methyl)-1-(2-methoxyethyl)-1H-benzo[d]imidazole-6-carboxylic acid]
1.9	3.5	N#Cc1ccc(C2Oc3cccc(-c4cc(F)c(Cc5nc6ccc(C(=O)O)cc6n5C[C@@H]5CCO5)c(F)c4)c3O2)c(F)c1 (stereo partly drawn) [Example 30, (S)-2-(4-(2-(4-cyano-2-fluorophenyl)benzo [d][1,3]dioxol-4-yl)-2,6-difluorobenzyl)-1-(oxetan-2-ylmethyl)-1H-benzo[d]imidazole-6-carboxylic acid]
111	3.67	COCCn1c(Cc2c(F)cc(-c3cccc4c3OC(C)(c3ccc(Cl)cn3)O4)cc2F)nc2ccc(C(=O)O)cc21 (stereo not drawn) [Example 64, 2-(4-(2-(5-chloropyridin-2-yl)-2-methylbenzo[d][1, 3]dioxol-4-yl)-2,6-difluorobenzyl)-1-(2-methoxyethyl)-1H-benzo[d]imidazole-6-carboxylic acid]
3.3	2.67	CC1(c2ccc(C#N)cc2F)Oc2cccc(-c3cc(F)c(Cc4nc5ccc(C(=O)O)cc5n4C[C@@H]4CCO4)c(F)c3)c2O1 (single isomer, unassigned) [Example 92]
26	8.67	COCCn1c(Cc2cc(F)c(-c3cccc4c3OC(C)(c3ccc(C#N)cc3F)O4)cc2F)nc2ccc(C(=O)O)cc21 (stereo not drawn) [Example 81, 2-(4-(2-(4-cyano-2-fluorophenyl)-2-methylbenzo[d][1, 3]dioxol-4-yl)-2,5-difluorobenzyl)-1-(2-methoxyethyl)-1H-benzo[d]imidazole-6-carboxylic acid]
12	2.83	CCn1cnnc1Cn1c(Cc2c(F)cc(-c3cccc4c3OC(C)(c3ccc(Cl)cc3F)O4)cc2F)nc2ccc(C(=O)O)cc21 (stereo not drawn) [Example 68, 2-(4-(2-(4-chloro-2-fluorophenyl)-2-methylbenzo[d][1, 3]dioxol-4-yl)-2,6-difluorobenzyl)-1-((4-ethyl-4H-1,2,4-triazol-3-yl)methyl)-1H-benzo[d]imidazole-6-carboxylic acid]

Compound	EC50 [1] [nM]	Predicted Hepatic Clearance (Pred. Cl.) [2] [mL/min/kg]
CC1(c2ccc(Cl)cc2F)Oc2cccc(-c3cc(F)c(Cc4nc5ccc(C(=O)O)cc5n4C[C@@H]4CCO4)c(F)c3F)c2O1 (stereo partly drawn) [Example 20, 2-(4-(2-(4-chloro-2-fluorophenyl)-2-methylbenzo[d][1, 3]dioxol-4-yl)-2,3,6-trifluorobenzyl)-1-(((S)-oxetan-2-yl)methyl)-1H-benzo[d]imidazole-6-carboxylic acid]	0.089	2.5
COCCn1c(Cc2c(F)cc(-c3cccc4c3OC(C)(c3ccc(C#N)s3)O4)cc2F)nc2ccc(C(=O)O)cc21 (stereo not drawn) [Example 11, 2-(4-(2-(5-cyanothiophen-2-yl)-2-methylbenzo[d][1, 3]dioxol-4-yl)-2,6-difluorobenzyl)-1-(2-methoxyethyl)-1H-benzo[d]imidazole-6-carboxylic acid]	34	7.17
CC1(c2ccc(Cl)cc2F)Oc2cccc(-c3cc(F)c(Cc4nc5ccc(C(=O)O)cc5n4C[C@@H]4CCO4)c(C#N)c3)c2O1 (stereo partly drawn) [Example 18, 2-(4-(2-(4-chloro-2-fluorophenyl)-2-methylbenzo[d][1, 3]dioxol-4-yl)-2-cyano-6-fluorobenzyl)-1-(((S)-oxetan-2-yl)methyl)-1H-benzo[d]imidazole-6-carboxylic acid]	0.14	8
CC1(c2ccc(Cl)cc2F)Oc2cccc(-c3cc(F)c(Cc4nc5ccc(C(=O)O)cc5n4CCOC(F)F)c(F)c3)c2O1 (stereo not drawn) [Example 83, 2-(4-(2-(4-chloro-2-fluorophenyl)-2-methylbenzo[d][1, 3]dioxol-4-yl)-2,6-difluorobenzyl)-1-(2-(difluoromethoxy)ethyl)-1H-benzo[d]imidazole-6-carboxylic acid]	13	3.3
CC1(c2ccc(Cl)cc2F)Oc2cccc(-c3cc(F)c(Cc4nc5ccc(C(=O)O)cc5n4Cc4ncco4)c(F)c3)c2O1 (stereo not drawn) [Example 69, 2-(4-(2-(4-chloro-2-fluorophenyl)-2-methylbenzo[d][1, 3]dioxol-4-yl)-2,6-difluorobenzyl)-1-(oxazol-2-ylmethyl)-1H-benzo[d]imidazole-6-carboxylic acid]	2.5	2.5
2-[[4-[2-(5- Chloro-2-pyridyl)- 2-methyl-1,3- benzodioxol-4- yl]triazol-1- yl]methyl]-3-(2- methoxyethyl) bencarboxylic acid [Example 104]	3030	13
